Assays:
Experiment in all cases: SILAC RP-ABPP
Assay type in all cases: cell-based
[1] = biological target: T1, EPDR1 Mammalian ependyminrelated (Q9UM22) (Homo sapiens, UniProt Q9UM22); settings: SILAC H/L, MDA-MB-231
T1 construct: shared by both the endogenous and recombinant forms of these proteins; endogenous in cells; host or cells: HEK293T and MDA-MB-231
T1 sequence (Q9UM22 38-224): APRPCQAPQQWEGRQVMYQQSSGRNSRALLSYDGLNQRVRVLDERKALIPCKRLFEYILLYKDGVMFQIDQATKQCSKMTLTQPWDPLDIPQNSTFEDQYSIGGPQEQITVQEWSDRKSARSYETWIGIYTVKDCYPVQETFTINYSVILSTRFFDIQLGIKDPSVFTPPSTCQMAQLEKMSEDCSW

[2] = biological target: T2, PLOD3 Procollagenlysine, 2oxoglutarate (O60568) (Homo sapiens, UniProt O60568); settings: SILAC H/L
T2 construct: In Situ Labelling of Cells with Hydrazine Probes for MS Experiments; endogenous in cells; host or cells: HEK293T and MDA-MB-231
T2 sequence (O60568 25-738): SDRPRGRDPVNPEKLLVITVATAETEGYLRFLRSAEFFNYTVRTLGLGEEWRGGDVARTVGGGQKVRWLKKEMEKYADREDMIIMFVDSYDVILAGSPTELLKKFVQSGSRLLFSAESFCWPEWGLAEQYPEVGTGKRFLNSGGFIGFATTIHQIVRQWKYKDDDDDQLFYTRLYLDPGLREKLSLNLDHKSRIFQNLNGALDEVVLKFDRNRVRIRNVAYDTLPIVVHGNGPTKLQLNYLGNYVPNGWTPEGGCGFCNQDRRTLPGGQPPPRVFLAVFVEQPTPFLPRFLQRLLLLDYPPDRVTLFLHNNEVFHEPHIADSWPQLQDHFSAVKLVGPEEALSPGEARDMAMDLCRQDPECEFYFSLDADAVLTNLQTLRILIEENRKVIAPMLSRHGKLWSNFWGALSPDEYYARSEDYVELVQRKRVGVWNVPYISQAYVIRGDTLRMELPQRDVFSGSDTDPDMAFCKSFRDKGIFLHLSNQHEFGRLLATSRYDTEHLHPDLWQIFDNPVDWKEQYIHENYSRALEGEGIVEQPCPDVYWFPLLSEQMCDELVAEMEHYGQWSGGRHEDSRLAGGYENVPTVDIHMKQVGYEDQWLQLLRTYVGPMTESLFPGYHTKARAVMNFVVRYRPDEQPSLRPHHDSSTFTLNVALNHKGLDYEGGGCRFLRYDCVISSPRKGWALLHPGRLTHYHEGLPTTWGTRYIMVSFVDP

[3] = biological target: T3, SCPEP1 Retinoidinducible serine (Q9HB40) (Homo sapiens, UniProt Q9HB40); settings: SILAC H/L
T3 construct: In Situ Labelling of Cells with Hydrazine Probes for MS Experiments; endogenous in cells; host or cells: HEK293T and MDA-MB-231
T3 sequence (Q9HB40 27-452): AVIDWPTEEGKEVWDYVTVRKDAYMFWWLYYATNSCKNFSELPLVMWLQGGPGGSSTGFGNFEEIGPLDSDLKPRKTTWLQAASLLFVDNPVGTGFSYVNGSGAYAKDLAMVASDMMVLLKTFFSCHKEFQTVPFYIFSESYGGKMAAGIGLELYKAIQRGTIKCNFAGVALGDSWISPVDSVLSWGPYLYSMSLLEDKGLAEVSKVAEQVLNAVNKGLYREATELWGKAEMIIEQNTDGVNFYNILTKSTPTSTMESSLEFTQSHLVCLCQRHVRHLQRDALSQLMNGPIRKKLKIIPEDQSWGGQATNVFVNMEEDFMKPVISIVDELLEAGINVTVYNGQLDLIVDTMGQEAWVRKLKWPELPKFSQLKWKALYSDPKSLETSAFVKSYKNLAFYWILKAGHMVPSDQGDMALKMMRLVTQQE

Structure (SMILES)	enrichment ratioavg ([1]; probe 1 3 mM 0.5 h vs probe 3)	competition ratioavg ([1]; probe 1 vs probe 1+10x probe 3)	enrichment ratioavg ([2]; probe 1 3 mM 0.5 h vs probe 3, MDA-MB-231)	competition ratioavg ([2]; probe 1 vs probe 1+10x probe 3, MDA-MB-231)	enrichment ratioavg ([3]; probe 1 3 mM 0.5 h vs probe 3, HEK293T)	competition ratioavg ([3]; probe 1 vs probe 1+10x probe 3, HEK293T)	enrichment ratioavg ([1]; probe 2 1 mM 0.5 h vs probe 4)	competition ratioavg ([1]; probe 2 vs probe 2+10x probe 4)	enrichment ratioavg ([2]; probe 2 1 mM 0.5 h vs probe 4, HEK293T)	competition ratioavg ([2]; probe 2 vs probe 2+10x probe 4, HEK293T)	enrichment ratioavg ([3]; probe 2 1 mM 0.5 h vs probe 4, MDA-MB-231)	competition ratioavg ([3]; probe 2 vs probe 2+10x probe 4, MDA-MB-231)
C#CCNN.Cl [probe 1, prop-2-yn-1-ylhydrazine hydrochloride]	20	20	14	2	5	2	–	–	–	–	–	–
C#CCCNC(=O)c1ccc(NN)cc1.Cl [probe 2, N-(but-3-yn-1-yl)-4-hydrazinylbenzamide hydrochloride]	–	–	–	–	–	–	20	5	20	6	19	4
